Source: ChEMBL document CHEMBL1201862, “PubChem BioAssay data set” (2004)
Active and inactive are the calls of the source.

Columns and labels:
Hexokinase-1 = target: T1, Hexokinase-1 (Homo sapiens, UniProt P19367); test: SAR analysis of small molecule inhibitors of hexokinase domain containing I (HKDC1) in the hexokinase 1 selectivity assay. [Related pubchem assays (depositor defined):AID493160, AID493190]; format: functional
T1 sequence (P19367 whole entry): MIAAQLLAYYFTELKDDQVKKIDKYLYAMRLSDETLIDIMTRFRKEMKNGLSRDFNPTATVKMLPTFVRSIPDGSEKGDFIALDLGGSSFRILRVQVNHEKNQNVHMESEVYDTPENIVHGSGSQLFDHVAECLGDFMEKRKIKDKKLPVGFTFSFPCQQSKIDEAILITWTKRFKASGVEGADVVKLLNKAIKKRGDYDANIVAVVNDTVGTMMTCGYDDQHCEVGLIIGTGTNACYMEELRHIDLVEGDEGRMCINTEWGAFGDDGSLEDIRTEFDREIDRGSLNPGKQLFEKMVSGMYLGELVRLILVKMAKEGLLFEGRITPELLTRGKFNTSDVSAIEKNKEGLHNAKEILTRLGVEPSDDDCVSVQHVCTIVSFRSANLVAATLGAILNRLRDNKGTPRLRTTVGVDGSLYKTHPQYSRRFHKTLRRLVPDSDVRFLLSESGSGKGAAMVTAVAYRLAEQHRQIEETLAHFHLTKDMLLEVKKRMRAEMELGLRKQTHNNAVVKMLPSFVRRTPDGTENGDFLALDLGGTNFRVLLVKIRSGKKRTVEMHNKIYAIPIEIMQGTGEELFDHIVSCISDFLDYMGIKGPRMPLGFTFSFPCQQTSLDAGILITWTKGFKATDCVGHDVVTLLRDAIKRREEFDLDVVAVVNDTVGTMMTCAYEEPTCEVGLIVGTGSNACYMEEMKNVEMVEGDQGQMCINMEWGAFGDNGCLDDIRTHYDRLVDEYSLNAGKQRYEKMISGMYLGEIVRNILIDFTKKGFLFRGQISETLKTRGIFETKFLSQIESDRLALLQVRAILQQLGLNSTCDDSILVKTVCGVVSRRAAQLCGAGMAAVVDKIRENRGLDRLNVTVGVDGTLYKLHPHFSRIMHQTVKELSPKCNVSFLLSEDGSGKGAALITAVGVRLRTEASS

Hexokinase HKDC1 = target: T2, Hexokinase HKDC1 (Homo sapiens, UniProt Q2TB90); test: SAR analysis of small molecule inhibitors of hexokinase domain containing I (HKDC1). [Related pubchem assays (depositor defined):AID493160, AID493190]; format: functional
T2 sequence (Q2TB90 whole entry): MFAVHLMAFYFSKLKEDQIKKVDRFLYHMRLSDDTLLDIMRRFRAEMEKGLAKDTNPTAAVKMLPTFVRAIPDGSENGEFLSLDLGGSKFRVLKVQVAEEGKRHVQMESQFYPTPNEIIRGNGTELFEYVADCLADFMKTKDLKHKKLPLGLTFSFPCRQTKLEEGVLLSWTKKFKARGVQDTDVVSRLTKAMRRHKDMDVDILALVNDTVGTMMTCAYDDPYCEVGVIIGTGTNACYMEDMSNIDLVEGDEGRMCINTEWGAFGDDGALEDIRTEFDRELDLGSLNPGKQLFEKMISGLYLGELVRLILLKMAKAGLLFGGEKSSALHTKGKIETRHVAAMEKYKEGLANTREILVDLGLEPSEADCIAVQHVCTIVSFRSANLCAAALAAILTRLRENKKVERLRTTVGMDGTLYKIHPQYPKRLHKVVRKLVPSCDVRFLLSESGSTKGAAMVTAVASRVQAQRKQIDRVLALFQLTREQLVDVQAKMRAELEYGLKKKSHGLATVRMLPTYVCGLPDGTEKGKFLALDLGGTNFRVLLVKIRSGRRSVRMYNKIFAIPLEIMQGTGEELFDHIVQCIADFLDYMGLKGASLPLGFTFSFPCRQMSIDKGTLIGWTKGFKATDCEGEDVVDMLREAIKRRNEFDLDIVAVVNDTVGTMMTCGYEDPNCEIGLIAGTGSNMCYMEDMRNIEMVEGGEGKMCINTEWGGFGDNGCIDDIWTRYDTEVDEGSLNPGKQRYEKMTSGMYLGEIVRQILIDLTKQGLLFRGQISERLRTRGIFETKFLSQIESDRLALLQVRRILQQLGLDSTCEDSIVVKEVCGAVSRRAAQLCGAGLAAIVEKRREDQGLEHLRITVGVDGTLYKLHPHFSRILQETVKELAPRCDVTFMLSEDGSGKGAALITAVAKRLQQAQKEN

INS1 = test: INS-1E survival protection against cytokine death – cell-based, luminescence, retest, dose response (AID 449756); format: functional; settings: Rattus norvegicus;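 also: cell death triggered by IL-1 beta plus TNF-alpha plus IFN-gamma mixture; protective hits raise ATP signal compared with cytokine alone wells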
Mucolipin-3 = target: T3, Mucolipin-3 (Homo sapiens, UniProt Q8TDD5); test: Fluorescence counterscreen assay for […] agonists: dose response cell-based high-throughput screening assay to identify agonists of the transient receptor potential channel ML3 (TRPML3). [Related pubchem assays: 1424, 1448 ]; format: functional
T3 sequence (Q8TDD5 whole entry): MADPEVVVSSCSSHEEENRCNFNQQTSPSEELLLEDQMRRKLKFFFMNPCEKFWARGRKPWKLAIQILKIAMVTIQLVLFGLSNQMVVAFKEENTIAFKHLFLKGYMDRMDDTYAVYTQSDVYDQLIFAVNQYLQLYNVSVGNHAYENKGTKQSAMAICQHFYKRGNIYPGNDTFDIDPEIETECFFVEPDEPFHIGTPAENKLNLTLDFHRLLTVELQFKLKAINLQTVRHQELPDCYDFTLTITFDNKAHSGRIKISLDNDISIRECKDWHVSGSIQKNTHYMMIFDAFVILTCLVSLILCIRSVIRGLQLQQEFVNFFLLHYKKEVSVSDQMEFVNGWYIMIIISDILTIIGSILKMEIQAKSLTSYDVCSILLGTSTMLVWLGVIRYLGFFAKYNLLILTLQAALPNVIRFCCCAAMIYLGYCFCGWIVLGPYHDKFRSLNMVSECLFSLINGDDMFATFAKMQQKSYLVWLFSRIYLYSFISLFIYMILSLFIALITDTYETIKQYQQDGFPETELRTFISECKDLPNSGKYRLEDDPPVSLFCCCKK

[1] = non-specific 3'UTR reporter inhibition in Clone20-Shn3RL – cell-based, Renilla luciferase, cherry-picked, counter-screen for Shn3 inhibitor project, dose response (AID 624133); format: functional
[2] = HepG2 cell cytotoxicity, dose response, cytotoxicity control for non-replicating M. tuberculosis project (AID 489018); format: functional; settings: Mycobacterium tuberculosis
[3] = loss of viability in HepG2 cells – cell-based, CellTiter-Glo, cherry-picked, cytotoxicity control for Shn3 inhibitor project, dose response (AID 624134); format: functional
cells = format: functional
HeLa = test: Cytotoxicity counterscreen assay for transcriptional activators of heat shock protein 70 (Hsp70). [Related pubchem assays: 1203, 1252 ]; format: functional; settings: Homo sapiens;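 also: cells exposed to compound for 16 hours before readout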
HEK293 [4] = test: cells; settings: Homo sapiens
Ion channel NompC = Ion channel NompC (Danio rerio, UniProt Q7T1G6); test: Dose response cell-based high-throughput screening assay for agonists of the transient receptor potential channel N1 (TRPN1). [Related pubchem assays (depositor defined):AID1424, AID1448]; format: functional
HEK293 [5] = test: cells; settings: Homo sapiens; remark: listed apart in the source
[6] = Vero E6 cell cytotoxicity, dose response, cytotoxicity control for non-replicating M. tuberculosis project, secondary assay (AID 492998); format: functional, VeroE6; settings: Vero C1008
[7] = target: T4, Aryl hydrocarbon receptor (Homo sapiens, UniProt P35869); test: Luminescence-based cell-based high throughput dose response assay for activators of the Aryl Hydrocarbon Receptor (AHR). [Related pubchem assays: 2796 (Primary screen (AHR activators in singlicate)), 2845 (Confirmation screen (AHR activators in triplicate)), 434939 (Counterscreen (PXR activators in triplicate)), 2804 (Summary (AHR activators))]; format: ADME
T4 sequence (P35869 whole entry): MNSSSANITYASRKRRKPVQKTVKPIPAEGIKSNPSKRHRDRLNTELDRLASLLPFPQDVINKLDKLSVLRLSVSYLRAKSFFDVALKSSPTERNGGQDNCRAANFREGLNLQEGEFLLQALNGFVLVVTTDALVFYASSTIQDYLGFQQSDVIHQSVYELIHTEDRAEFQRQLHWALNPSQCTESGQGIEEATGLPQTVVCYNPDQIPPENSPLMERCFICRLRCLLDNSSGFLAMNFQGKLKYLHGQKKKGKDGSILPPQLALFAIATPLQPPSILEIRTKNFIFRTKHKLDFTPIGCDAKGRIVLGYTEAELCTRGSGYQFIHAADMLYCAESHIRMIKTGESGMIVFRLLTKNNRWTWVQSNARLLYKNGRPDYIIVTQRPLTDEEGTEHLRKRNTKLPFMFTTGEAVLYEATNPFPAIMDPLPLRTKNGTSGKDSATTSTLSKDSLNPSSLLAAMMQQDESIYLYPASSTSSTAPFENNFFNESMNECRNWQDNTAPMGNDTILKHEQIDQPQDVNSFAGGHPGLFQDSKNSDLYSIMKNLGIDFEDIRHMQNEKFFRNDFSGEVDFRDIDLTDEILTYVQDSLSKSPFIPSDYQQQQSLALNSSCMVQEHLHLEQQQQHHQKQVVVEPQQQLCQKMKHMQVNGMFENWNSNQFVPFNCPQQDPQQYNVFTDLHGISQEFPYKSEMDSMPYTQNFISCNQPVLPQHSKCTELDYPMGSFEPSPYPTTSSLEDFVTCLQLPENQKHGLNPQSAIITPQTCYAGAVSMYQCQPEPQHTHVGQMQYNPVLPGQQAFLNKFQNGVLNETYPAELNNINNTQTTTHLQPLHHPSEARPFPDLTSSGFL

[8] = THP-1 cell cytotoxicity, dose response, cytotoxicity control for non-replicating M. tuberculosis project (AID 489025); format: functional
[9] = microbe, parasite or virus in culture; format: functional; settings: Mycobacterium tuberculosis
Jurkat = test: blockers of NF-kB activation in T cells – Jurkat, luciferase reporter, luminescence, B- and T-cell, dose response (AID 489004); format: functional, cell-based; settings: Homo sapiens;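 also: NF-kB luciferase reporter Jurkat cells stimulated with PMA plus ionomycin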
Protein Wnt-3a = Protein Wnt-3a (Mus musculus, UniProt P27467); test: antagonism of Wnt3a pathway luciferase reporter – Wnt-LIGHT cells, luminescence, selectivity assay for Gli-SUFU antagonist project, dose response (AID 651570); format: functional; settings: read-out: IC50_Mean;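 also: Wnt-LIGHT reporter cells stimulated with conditioned medium from Wnt3a-producing cells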
[10] = reduction of Shn3 3'UTR-driven luciferase in osteoblasts – cell-based, Clone20 osteoblasts, firefly luciferase, cherry-picked, dose response (AID 624132); format: functional;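 also: firefly luciferase luminescence from reporter carrying the Shn3 3'UTR in osteoblasts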
[11] = HEK-293T viability loss, compound-treated – cell-based, uHTS hits, cytotoxicity control for B/T-cell NF-kB inhibitor project, dose response (AID 489019); format: functional;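 also: IC50 reflects cytotoxicity as loss of cell viability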
[12] = target: T5, COUP transcription factor 2 (Homo sapiens, UniProt P24468); test: Luminescence-based cell-based high throughput dose response assay to identify inhibitors of COUP-TFII (NR2F2).; format: functional;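 also: HEK293 cells transiently cotransfected with COUP-TFII expression vector and reporter; luciferase reporter luminescence driven by COUP-TFII from the pX2-168 reporter plasmid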
T5 sequence (P24468 whole entry): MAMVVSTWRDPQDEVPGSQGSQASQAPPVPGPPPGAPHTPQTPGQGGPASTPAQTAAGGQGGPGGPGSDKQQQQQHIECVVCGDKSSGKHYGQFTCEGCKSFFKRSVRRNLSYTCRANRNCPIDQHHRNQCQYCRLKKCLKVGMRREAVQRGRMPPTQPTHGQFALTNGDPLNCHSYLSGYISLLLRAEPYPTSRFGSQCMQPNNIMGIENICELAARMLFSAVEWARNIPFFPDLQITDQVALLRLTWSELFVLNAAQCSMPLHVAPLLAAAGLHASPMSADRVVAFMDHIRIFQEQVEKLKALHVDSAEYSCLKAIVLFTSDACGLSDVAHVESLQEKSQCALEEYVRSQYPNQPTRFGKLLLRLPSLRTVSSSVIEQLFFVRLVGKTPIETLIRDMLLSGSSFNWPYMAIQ

Chain of Ion channel NompC (Q7T1G6 whole entry): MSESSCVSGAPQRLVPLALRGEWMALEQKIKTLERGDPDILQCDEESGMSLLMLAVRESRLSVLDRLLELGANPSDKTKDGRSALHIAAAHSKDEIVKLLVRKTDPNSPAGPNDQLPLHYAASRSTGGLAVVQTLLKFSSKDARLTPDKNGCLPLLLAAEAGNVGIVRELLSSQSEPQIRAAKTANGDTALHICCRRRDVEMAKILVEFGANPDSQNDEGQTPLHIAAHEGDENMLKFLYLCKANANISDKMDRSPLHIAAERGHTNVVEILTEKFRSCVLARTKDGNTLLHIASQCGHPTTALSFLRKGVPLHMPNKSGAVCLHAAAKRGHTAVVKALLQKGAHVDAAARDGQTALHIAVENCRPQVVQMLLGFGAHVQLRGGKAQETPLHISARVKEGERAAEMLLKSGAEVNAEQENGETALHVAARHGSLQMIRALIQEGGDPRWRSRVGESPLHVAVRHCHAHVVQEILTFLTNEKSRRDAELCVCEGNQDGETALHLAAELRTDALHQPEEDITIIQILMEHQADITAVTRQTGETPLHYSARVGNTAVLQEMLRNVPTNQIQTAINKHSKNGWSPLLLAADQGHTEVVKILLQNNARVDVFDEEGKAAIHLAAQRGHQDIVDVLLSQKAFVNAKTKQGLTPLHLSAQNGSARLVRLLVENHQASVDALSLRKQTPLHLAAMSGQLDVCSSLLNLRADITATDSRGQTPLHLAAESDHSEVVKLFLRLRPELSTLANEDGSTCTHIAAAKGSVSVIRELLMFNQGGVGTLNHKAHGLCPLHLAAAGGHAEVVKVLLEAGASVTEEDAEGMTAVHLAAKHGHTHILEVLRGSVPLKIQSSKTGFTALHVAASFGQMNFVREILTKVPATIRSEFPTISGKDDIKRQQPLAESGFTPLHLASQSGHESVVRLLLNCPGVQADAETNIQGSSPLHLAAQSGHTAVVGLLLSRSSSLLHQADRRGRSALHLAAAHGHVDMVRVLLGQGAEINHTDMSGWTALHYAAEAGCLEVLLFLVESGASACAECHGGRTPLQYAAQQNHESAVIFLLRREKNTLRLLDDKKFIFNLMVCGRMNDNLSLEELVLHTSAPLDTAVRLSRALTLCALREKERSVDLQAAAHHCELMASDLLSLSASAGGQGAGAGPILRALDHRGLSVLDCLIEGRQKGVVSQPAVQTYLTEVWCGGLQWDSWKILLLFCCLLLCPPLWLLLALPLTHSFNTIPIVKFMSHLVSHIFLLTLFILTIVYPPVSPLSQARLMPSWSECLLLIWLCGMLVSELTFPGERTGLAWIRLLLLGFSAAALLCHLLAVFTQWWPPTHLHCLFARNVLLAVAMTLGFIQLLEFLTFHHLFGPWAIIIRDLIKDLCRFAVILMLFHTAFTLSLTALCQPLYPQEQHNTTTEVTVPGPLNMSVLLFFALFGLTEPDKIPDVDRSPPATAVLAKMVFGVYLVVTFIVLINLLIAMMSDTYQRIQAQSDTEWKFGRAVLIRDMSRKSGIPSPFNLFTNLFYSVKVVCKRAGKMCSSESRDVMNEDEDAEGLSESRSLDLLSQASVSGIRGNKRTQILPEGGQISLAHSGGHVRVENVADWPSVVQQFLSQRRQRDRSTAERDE
Chain of Protein Wnt-3a (P27467 whole entry): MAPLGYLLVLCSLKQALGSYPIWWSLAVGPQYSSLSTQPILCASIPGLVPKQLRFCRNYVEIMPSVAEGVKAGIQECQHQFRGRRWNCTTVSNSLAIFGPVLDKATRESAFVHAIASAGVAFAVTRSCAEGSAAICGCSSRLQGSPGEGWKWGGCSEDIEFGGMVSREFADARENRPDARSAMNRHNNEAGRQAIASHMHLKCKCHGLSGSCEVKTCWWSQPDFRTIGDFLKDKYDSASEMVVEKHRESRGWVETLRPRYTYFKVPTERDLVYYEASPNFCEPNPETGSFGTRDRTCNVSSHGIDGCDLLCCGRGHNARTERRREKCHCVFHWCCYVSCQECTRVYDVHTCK

Cc1ccoc1C(=O)Nc1cccc(C(=O)Nc2cccc(C(F)(F)F)c2)c1
IC50 (Hexokinase-1): > 80 µM (inactive)
IC50 (Hexokinase HKDC1): > 80 µM (inactive)

CC(=O)Nc1sc2c(c1-c1nc3ccccc3s1)CCN(C(C)C)C2
AC50 (INS1): 1.77 µM (active)
EC50 (Mucolipin-3): > 29.9 µM (not active)
AC50 [1]: 20.1 µM (active)
CC50 [2]: 7.58 µM (active)
AC50 [3]: 4.53 µM (active)
IC50 (cells): 5.98 µM (active)
CC50 (HeLa): 9.92 µM (active)
EC50 (HEK293 [4]): > 2.21 µM (active)
EC50 (Ion channel NompC): 25.1 µM (inactive)
EC50 (HEK293 [5]): > 59.6 µM (inactive)
CC50 [6]: 3.05 µM (active)
EC50 [7]: > 1.13 µM (active)
CC50 [8]: 3.78 µM (active)
CC50 [9]: 2.94 µM (active)

Cc1cc(NC(=O)CSc2nc(C(C)C)nc3sc(C)c(C)c23)no1
EC50 (HEK293 [4]): > 59.7 µM (inactive)
EC50 (HEK293 [5]): > 59.7 µM (inactive)

CCOC(=O)C1CCCN(S(=O)(=O)c2ccc(S(=O)(=O)N(CC)CC)cc2)C1 (stereo not given)
IC50 (Jurkat): > 80 µM (inactive)
AC50 (INS1): 2.6 µM (active)
IC50 (Protein Wnt-3a): 0.236 µM (active)
AC50 [1]: 0.801 µM (active)
AC50 [10]: 0.512 µM (active)
IC50 [11]: > 80 µM (inactive)
IC50 [12]: 4.75 µM (active)
